ChEMBL document CHEMBL1201862, “PubChem BioAssay data set” (2004)
Calls of active or inactive are those of the source.

What was measured:
[1] = target: Cystic fibrosis transmembrane conductance regulator/Golgi-associated PDZ and coiled-coil motif-containing protein (Homo sapiens, UniProt P13569+Q9HD26); experiment: CAL PDZ peptide-binding inhibitors, dose response, biochemical, fluorescence polarization, Cerulean-tagged CAL PDZ, cherry-picks (AID 504773)
[2] = cytotoxicity in KRAS-transformed pancreatic duct cells, primary screen, cell-based, fluorescence, HTS (AID 431); assay type: functional; conditions: Homo sapiens;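 further: cell line used: HPDE-C7K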
[3] = target: Neurotensin receptor type 1 (Homo sapiens, UniProt P30989); assay type: functional;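 further: Image-based confirmatory dose-response assay measuring agonist activity at NTR1; NTR1-expressing U2OS osteosarcoma cells imaged for beta-arrestin GFP spot formation; agonist potency where compounds increase beta-arrestin recruitment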
[4] = target: Luciferin 4-monooxygenase (Photinus pyralis, UniProt P08659); experiment: Counter Screen for Luciferase-based Assay Positives. [Related pubchem assays: 620, 618, 411 ]
HT-1080 = experiment: cytotoxicity in HT1080 fibrosarcoma cells, cell-based, fluorescence readout (AID 620); assay type: functional; conditions: Homo sapiens
Paired box protein Pax-8 = Paired box protein Pax-8 (Homo sapiens, UniProt Q06710); experiment: inhibitors of PAX8-driven TPO luciferase reporter, dose response, RMG-I cells, cherry-pick (AID 687027); assay type: functional, cell-based;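 further: luciferase reporter driven by Pax8 target thyroperoxidase promoter measured by SteadyGlo luminescence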
[5] = cytotoxicity in HPDE-C7 cells, cell-based, fluorescence, HTS (AID 430); assay type: functional; conditions: Homo sapiens
Cytochrome P450 2C9 = Cytochrome P450 2C9 (Homo sapiens, UniProt P11712)
Cytochrome P450 2D6 = Cytochrome P450 2D6 (Homo sapiens, UniProt P10635);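 further: CYP2D6 member of a cytochrome P450 panel assay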
Cytochrome P450 2C19 = Cytochrome P450 2C19 (Homo sapiens, UniProt P33261); experiment: Cytochrome panel assay with activity outcomes. Panel member name: p450-cyp2c19 Compounds with AC50 equal or less than 10 uM are considered active; assay type: functional; conditions: read-out: AC50
[6] = target: Intestinal-type alkaline phosphatase (Homo sapiens, UniProt P09923); experiment: Dose Response confirmation of uHTS hits from a small molecule inhibitors of human intestinal alkaline phosphatase via a luminescent assay. [Related pubchem assays (depositor defined):AID2544, AID2574]; assay type: functional
[7] = target: T1, Scavenger receptor class B member 1 (Mus musculus, UniProt Q61009); experiment: inhibitors of SR-BI mediated HDL lipid uptake, dose response, ldlA[mSR-BI] cells, fluorescence, cherry pick (AID 493194); assay type: functional, cell-based;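 further: cellular uptake of fluorescent DiI-labeled HDL measured as cell fluorescence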
T1 sequence (Q61009 whole entry): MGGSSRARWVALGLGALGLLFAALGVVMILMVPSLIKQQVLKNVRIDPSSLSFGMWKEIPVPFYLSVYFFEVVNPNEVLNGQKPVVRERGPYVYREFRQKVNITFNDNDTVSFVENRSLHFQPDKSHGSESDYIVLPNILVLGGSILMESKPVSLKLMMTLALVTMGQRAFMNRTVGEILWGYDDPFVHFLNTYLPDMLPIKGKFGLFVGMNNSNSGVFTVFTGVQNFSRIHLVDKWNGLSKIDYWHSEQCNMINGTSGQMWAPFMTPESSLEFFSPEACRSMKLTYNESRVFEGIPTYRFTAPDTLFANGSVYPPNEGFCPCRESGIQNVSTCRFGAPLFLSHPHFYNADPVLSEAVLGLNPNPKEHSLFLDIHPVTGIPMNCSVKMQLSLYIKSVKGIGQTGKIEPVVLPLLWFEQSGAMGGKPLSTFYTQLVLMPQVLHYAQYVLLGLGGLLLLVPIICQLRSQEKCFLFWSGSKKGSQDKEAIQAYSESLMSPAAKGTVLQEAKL

[8] = cytotoxicity in NIH/3T3 mouse fibroblasts, dose response, cytotoxicity control, cell-based, mouse embryonic fibroblasts, dry powder, set 2 (AID 493247); assay type: functional; conditions: Fibroblast
[9] = target: G-protein coupled receptor 55 (Homo sapiens, UniProt Q9Y2T6); experiment: GPR55 agonists via beta-arrestin recruitment, primary screen, imaging, U2OS cells, beta-arrestin-GFP redistribution (AID 1961); assay type: functional
[10] = target: Voltage-dependent T-type calcium channel subunit alpha-1H (Homo sapiens, UniProt O95180); experiment: Cav3.2 T-type channel inhibitors, cell-based, synthetic library set 1, calcium flux (AID 493022); assay type: functional
[11] = target: Voltage-gated N-type calcium channel alpha-1B subunit/Amyloid beta A4 precursor protein-binding family A member 1 (Homo sapiens, UniProt Q00975+Q02410); experiment: disruptors of Mint-PDZ/N-type channel peptide interaction – biochemical, HTRF, set 2, SAR follow-up (AID 434980); assay type: functional

Chain of Cystic fibrosis transmembrane conductance regulator/Golgi-associated PDZ and coiled-coil motif-containing protein (P13569 whole entry, other chains not shown): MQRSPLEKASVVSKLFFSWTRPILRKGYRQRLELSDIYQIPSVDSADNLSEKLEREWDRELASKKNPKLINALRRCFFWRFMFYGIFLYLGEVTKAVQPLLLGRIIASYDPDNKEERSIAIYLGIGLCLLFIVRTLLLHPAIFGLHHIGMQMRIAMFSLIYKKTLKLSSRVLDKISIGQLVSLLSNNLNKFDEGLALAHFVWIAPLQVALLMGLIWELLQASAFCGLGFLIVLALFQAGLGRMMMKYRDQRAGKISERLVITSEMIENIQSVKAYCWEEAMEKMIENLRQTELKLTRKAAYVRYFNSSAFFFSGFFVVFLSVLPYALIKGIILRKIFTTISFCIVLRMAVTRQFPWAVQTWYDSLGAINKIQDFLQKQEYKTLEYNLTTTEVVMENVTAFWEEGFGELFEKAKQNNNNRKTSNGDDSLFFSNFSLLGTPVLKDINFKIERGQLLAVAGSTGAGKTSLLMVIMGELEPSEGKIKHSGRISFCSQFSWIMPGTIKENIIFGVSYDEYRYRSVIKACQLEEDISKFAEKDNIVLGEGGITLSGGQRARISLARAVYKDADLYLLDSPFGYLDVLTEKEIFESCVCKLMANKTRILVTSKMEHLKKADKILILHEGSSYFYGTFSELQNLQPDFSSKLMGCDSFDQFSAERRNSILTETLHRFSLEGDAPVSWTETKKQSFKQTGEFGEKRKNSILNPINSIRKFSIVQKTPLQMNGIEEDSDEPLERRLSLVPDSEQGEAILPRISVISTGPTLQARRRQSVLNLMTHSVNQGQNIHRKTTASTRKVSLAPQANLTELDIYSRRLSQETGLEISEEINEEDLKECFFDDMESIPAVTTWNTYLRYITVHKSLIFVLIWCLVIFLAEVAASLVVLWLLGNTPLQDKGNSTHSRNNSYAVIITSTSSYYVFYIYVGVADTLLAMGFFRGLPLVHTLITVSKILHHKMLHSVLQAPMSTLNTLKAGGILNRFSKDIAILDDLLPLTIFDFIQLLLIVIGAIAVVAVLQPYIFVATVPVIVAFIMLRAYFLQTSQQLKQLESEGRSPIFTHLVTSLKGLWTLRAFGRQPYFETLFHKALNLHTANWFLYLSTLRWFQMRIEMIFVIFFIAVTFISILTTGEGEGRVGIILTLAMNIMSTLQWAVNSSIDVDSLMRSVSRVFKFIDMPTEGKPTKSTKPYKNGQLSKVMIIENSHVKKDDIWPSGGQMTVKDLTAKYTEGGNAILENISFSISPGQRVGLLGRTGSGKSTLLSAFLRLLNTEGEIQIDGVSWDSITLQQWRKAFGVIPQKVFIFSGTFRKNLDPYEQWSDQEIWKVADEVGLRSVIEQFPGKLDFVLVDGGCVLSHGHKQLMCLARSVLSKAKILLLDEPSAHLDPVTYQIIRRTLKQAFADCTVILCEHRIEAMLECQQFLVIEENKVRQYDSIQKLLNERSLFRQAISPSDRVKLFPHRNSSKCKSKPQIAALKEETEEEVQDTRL
Chain of Cytochrome P450 2D6 (P10635 whole entry): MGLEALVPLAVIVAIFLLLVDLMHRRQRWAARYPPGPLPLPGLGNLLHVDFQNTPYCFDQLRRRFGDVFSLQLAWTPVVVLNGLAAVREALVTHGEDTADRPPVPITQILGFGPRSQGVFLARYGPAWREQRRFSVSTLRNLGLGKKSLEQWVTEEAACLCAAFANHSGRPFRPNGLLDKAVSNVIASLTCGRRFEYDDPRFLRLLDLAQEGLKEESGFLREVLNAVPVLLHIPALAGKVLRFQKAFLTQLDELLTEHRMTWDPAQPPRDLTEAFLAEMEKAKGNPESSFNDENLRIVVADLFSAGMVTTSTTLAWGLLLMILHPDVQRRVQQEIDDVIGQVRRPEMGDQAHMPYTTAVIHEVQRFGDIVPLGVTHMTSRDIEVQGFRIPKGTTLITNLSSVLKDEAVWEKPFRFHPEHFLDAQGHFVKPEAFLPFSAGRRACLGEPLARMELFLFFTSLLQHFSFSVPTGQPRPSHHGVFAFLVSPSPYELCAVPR
Chain of Neurotensin receptor type 1 (P30989 whole entry): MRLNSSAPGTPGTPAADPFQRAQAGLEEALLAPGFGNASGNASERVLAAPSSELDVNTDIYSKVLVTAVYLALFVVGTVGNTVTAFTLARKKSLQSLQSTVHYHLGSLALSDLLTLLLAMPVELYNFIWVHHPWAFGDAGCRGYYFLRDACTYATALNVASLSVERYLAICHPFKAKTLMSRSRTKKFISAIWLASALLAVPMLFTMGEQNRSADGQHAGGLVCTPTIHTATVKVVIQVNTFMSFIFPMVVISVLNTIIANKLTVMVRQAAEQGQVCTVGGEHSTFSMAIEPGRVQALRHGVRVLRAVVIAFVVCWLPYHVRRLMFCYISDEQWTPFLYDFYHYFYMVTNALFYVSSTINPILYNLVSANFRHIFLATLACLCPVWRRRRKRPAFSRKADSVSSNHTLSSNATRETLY
Chain of Luciferin 4-monooxygenase (P08659 whole entry): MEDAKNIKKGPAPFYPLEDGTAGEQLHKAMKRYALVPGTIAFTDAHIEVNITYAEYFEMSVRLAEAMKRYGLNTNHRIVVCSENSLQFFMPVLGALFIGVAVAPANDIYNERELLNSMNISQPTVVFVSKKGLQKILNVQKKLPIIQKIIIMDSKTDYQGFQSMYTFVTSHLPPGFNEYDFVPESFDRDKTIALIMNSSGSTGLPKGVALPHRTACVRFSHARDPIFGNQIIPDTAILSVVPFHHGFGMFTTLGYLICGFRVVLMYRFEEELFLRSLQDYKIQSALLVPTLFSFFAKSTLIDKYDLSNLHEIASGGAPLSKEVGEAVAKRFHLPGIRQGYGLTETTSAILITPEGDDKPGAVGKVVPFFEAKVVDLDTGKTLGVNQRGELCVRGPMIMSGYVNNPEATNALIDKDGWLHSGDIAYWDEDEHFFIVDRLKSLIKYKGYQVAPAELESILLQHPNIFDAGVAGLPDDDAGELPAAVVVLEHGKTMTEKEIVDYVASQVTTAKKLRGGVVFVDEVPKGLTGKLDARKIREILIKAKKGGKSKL
Chain of G-protein coupled receptor 55 (Q9Y2T6 whole entry): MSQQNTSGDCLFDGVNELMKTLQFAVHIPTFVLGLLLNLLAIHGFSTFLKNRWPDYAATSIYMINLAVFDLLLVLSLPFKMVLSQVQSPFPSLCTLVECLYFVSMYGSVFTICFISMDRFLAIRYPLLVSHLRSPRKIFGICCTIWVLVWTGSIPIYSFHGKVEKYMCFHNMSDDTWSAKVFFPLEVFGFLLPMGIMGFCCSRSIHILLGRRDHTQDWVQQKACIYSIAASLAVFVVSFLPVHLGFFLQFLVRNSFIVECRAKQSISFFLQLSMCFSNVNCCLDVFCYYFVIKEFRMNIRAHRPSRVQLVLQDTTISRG
Chain of Cytochrome P450 2C9 (P11712 whole entry): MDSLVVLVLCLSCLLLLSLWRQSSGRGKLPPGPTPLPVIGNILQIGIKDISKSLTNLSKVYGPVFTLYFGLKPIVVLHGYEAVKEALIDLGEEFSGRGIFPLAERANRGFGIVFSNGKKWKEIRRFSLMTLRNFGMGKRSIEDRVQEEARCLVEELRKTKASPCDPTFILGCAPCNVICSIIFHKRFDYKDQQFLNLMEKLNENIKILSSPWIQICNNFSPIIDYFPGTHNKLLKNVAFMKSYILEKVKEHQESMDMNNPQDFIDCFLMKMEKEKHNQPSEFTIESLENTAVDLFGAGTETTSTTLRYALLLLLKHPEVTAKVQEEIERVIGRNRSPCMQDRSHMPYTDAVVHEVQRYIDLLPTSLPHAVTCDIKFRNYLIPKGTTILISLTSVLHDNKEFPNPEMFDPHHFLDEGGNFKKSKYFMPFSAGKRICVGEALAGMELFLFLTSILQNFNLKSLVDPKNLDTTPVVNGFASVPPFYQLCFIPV
Chain of Intestinal-type alkaline phosphatase (P09923 whole entry): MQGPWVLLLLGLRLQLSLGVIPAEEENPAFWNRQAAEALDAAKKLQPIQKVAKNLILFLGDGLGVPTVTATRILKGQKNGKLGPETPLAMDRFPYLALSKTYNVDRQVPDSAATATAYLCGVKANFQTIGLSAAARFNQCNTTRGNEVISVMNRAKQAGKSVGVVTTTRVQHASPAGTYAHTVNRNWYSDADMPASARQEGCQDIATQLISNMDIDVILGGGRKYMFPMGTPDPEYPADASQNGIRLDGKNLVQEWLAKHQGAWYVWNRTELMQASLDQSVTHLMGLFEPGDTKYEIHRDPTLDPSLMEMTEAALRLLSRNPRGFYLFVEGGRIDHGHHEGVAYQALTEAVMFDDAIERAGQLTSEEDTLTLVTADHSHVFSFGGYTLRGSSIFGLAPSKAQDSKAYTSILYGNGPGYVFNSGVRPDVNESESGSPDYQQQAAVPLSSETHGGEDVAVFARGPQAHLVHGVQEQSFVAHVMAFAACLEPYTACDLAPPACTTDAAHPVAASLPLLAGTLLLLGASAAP
Chain of Cytochrome P450 2C19 (P33261 whole entry): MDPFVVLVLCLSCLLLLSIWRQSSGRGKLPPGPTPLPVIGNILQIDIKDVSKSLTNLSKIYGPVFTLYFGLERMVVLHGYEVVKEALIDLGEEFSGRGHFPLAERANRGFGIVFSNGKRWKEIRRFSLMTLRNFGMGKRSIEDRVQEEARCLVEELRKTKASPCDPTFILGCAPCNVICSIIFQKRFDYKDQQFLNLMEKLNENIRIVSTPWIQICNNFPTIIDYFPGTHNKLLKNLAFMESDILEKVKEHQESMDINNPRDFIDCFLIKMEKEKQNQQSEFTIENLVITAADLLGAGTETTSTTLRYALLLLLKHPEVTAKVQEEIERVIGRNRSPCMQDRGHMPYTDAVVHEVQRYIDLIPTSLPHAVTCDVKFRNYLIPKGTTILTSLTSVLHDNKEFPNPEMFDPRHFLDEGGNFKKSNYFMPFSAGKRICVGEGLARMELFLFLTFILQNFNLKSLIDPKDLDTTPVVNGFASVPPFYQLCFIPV

## c1ccc(C(c2ccccc2)c2cccnc2)cc1
[1]
  AC50: 45.6 µM (active)

## Cc1ccc(-c2csc3ncnc(Sc4nnc(CN5CCCCCC5=O)o4)c23)cc1
[2]
  EC50: 2.1 µM (active)
[3]
  EC50: 8.73 µM (active)
[4]
  EC50: 74 µM (active)
HT-1080
  EC50: 20.1 µM (active)
Paired box protein Pax-8
  AC50: 5 µM (active)
[5]
  EC50: 1.78 µM (active)

## O=c1c2c(-c3cccs3)csc2ncn1-c1ccc(Br)cc1
Cytochrome P450 2C9
  AC50: 3.98 µM (inconclusive)
Cytochrome P450 2D6
  AC50: 3.55 µM (inconclusive)
Cytochrome P450 2C19
  AC50: 2.24 µM (inconclusive)
[6]
  IC50: > 100 µM (inactive)

## Cc1ccccc1CN1CCN(C(=O)c2ccc(S(=O)(=O)NCc3ccco3)cc2)CC1
[7]
  AC50: 0.092 µM (active)

## COc1cc2c(cc1OC)CN(C(=O)C1CCCN(Cc3ccccc3)C1)CC2 (stereo unspecified)
[8]
  AC50: 52.7 µM (active)

## CC(C)C[C@@H](COc1ccccc1)N1CCN(CCc2ccccc2)CCC1=O
[9]
  EC50: 2.69 µM (active)

## O=C(COc1ccc(F)cc1)Nc1nnc(-c2ccc(F)cc2)o1
[10]
  EC50: 10 µM (active)

## O=C(c1cc(-c2ccco2)nc2ccccc12)N1CCC(N2CCOCC2)CC1
[11]
  IC50: > 56.8 µM (inactive)
